The subject of experiment [1] is CCRF-CEM. Briefly: Resistance ratio of IC50 for human multidrug-resistant CEM/ADR5000 cells expressing p-glycoprotein to IC50 for human CCRF-CEM cells. Format: functional.
For a further experiment, the system named is Plasmodium falciparum. Briefly: Antimalarial activity against Plasmodium falciparum 3D7 assessed as growth inhibition after 3 days by HRP2 based ELISA. Format: functional, organism-based. Particulars: 3D7, 72 h; call rule not given here. Background: An ELISA detects its analyte on a solid surface through an enzyme-linked reagent.
For experiment [2], the system named is CCRF-CEM. Description: Cytotoxicity against human CCRF-CEM cells by resazurin assay. Type of experiment: functional, cell-based.
A short description of experiment [3]: Cytotoxicity against human multidrug-resistant CEM/ADR5000 cells expressing p-glycoprotein by resazurin assay. Type of experiment: functional, cell-based.
The nature of experiment [4]: Cytotoxicity against human multidrug-resistant CEM/ADR5000 cells expressing p-glycoprotein at 400 uM by resazurin assay. Type of experiment: functional, cell-based. On the technique in general: Alamar Blue is a resazurin reagent that responds to reducing activity.

Structures are written as SMILES.

Take `COc1cc(CCCO)cc2cc(-c3ccc4c(c3)OCO4)oc12` [EGONOL]: in the experiment with CCRF-CEM [1], the “Ratio IC50” value was 1.7. Further, the IC50 was found to be 25400 nM with Plasmodium falciparum, 5750 nM in the experiment with CCRF-CEM [2] and 9780 nM in experiment [3].

As for `COc1cccc2c1C(=O)c1c(O)c3c(c(O)c1C2=O)C[C@@](O)(C(=O)CO)C[C@@H]3O[C@H]1C[C@H](N)[C@H](O)[C@H](C)O1` [DOXORUBICIN], the “Ratio IC50” value in the experiment on CCRF-CEM [1] amounted to 2585. Further, the IC50 in the experiment with CCRF-CEM [2] is 9 nM; in experiment [3] it was 23300 nM.

`C[C@H]1[C@H](OC(=O)CCC(=O)NCCCCCCCCNC(=O)CCC(=O)O[C@@H]2O[C@@H]3O[C@@]4(C)CC[C@H]5[C@H](C)CC[C@@H]([C@H]2C)[C@@]35OO4)O[C@@H]2O[C@@]3(C)CC[C@H]4[C@H](C)CC[C@@H]1[C@@]24OO3`: in the experiment with Plasmodium falciparum, the IC50 came to 0.3 nM.

Turning to `C[C@@H]1CC[C@H]2[C@@H](C)C(CCCO)O[C@@H]3O[C@@]4(C)CC[C@@H]1[C@]32OO4` (some centres undefined), the IC50 entry is “Not Active” in experiment [4] and 174000 nM in the experiment on CCRF-CEM [2].

Consider `C[C@H]1[C@H](OC(=O)CCC(=O)O)O[C@@H]2O[C@@]3(C)CC[C@H]4[C@H](C)CC[C@@H]1[C@@]24OO3` [ARTESUNATE], for which the “Ratio IC50” value in the experiment on CCRF-CEM [1] is on record as 0.67. Moreover, the IC50 in the experiment on Plasmodium falciparum was determined as 0.82 nM; in experiment [3], 1200 nM.

Regarding `C[C@H]1[C@H](OC(=O)CCC(=O)NCC(O)CNC(=O)CCC(=O)O[C@@H]2O[C@@H]3O[C@@]4(C)CC[C@H]5[C@H](C)CC[C@@H]([C@H]2C)[C@@]35OO4)O[C@@H]2O[C@@]3(C)CC[C@H]4[C@H](C)CC[C@@H]1[C@@]24OO3` (some centres undefined), in the experiment on Plasmodium falciparum, the IC50 worked out at 0.32 nM.

As to `C[C@@H]1CC[C@H]2[C@@H](C)C(=O)O[C@@H]3O[C@@]4(C)CC[C@@H]1[C@]32OO4` [ARTEMISININ], the “Ratio IC50” value in the experiment on CCRF-CEM [1] is on record as 0.73.

`COc1cc(CCCOC(=O)CCC(=O)O[C@@H]2O[C@@H]3O[C@@]4(C)CC[C@H]5[C@H](C)CC[C@@H]([C@H]2C)[C@@]35OO4)cc2cc(-c3ccc4c(c3)OCO4)oc12`: the “Ratio IC50” value in the experiment with CCRF-CEM [1] is listed as 6.12. Also, the values for the IC50 (in the experiment with Plasmodium falciparum; in the experiment on CCRF-CEM [2]; in experiment [3]) were 2.3 nM, 180 nM and 1120 nM, respectively.

The IC50 is the concentration needed to halve the response being measured.
